In BindingDB's records for doi:10.1021/jm00366a022 (1984):

How the values were obtained:
[1] = biological target: Alpha-1 adrenergic receptor (Bos taurus); assay: Binding affinity against alpha-1 adrenergic receptor from calf cerebral cortex, using [3H]prazosin as the radioligand
[2] = biological target: Alpha-1 adrenergic receptor (Bos taurus); assay: as above; remark: listed apart in the source

Ki [1] [µM] | Ki [2] [µM] | Structure (SMILES)
0.38 | – | Oc1cccc(NCC2=NCCN2)c1 [3-[(4,5-Dihydro-1H-imidazol-2-ylmethyl)-amino]-phenol]
– | 0.23 | Cc1ccc(NCC2=NCCN2)cc1 [(4,5-Dihydro-1H-imidazol-2-ylmethyl)-p-tolyl-amine]

Continued, compound first:

Structure (SMILES) | Ki [1] [µM] | Ki [2] [µM]
CCN(CC1=NCCN1)c1ccc(C)cc1 [(4,5-Dihydro-1H-imidazol-2-ylmethyl)-ethyl-p-tolyl-amine] | – | 0.3
Cc1ccc(N(C)CC2=NCCN2)cc1 [(4,5-Dihydro-1H-imidazol-2-ylmethyl)-methyl-p-tolyl-amine] | 0.15 | –
Cc1ccc(N(CC2=NCCN2)C2CCCCC2)cc1 [Cyclohexyl-(4,5-dihydro-1H-imidazol-2-ylmethyl)-p-tolyl-amine] | – | 0.424
